A short description of data set [1]: Determination of pKa of formulated lipids (TNS fluorescence assay in lipid nanoparticles). Type of data set: physicochemical. The source says:
As described elsewhere, the pKa of formulated lipids was correlated with the effectiveness of LNPs for delivery of nucleic acids (see Jayaraman et al, Angewandte Chemie, International Edition (2012), 51(34), 8529-8533; Semple et al, Nature Biotechnology 28, 172-176 (2010)). In some embodiments, the preferred range of pKa was ˜5 to ˜7. […] Lipid nanoparticles comprising compound of structure (I)/DSPC/cholesterol/PEG-lipid (50/10/38.5/1.5 or 47.5:10:40.8:1.7 mol %) in PBS at a concentration of 0.4 mM total lipid were prepared using the in-line process as described in Example 1. TNS was prepared as a 100 μM stock solution in distilled water. Vesicles were diluted to 24 μM lipid in 2 mL of buffered solutions containing 10 mM HEPES, 10 mM MES, 10 mM ammonium acetate, and 130 mM NaCl, where the pH ranged from 2.5 to 11. An aliquot of the TNS solution was added to give a final concentration of […] and following vortex mixing fluorescence intensity was measured at room temperature in a SLM Aminco Series 2 Luminescence Spectrophotometer using excitation and emission wavelengths of 321 nm and 445 nm. A sigmoidal best fit analysis was applied to the fluorescence data and the pKa was measured as the pH giving rise to half-maximal fluorescence intensity.

The test system of data set [2] is luciferase expression in the liver. Put plainly: Luciferase mRNA in vivo evaluation using lipid nanoparticle compositions. Conditions: for Liver Luc (ng luc/g liver), *dosed at 1.0 mg/kg: 1.0 mg mRNA/kg (footnote *); for Liver Luc (ng luc/g liver), *dosed at 1.0 mg/kg / Liver Luc @ 0.5 mg/kg (ng luc/g liver): tail vein injection, liver 4 hours after administration; for Relative activity in the luciferase assay relative to MC3: liver luciferase expression 4 hours after tail vein injection, 47.5/10/40.8/1.7 cationic lipid/DSPC/cholesterol/PEG-DMA; for Liver Luc @ 0.5 mg/kg (ng luc/g liver): 0.5 mg mRNA/kg. Also on record: species or system mice. On the procedure: A lipid of structure (I), DSPC, cholesterol and PEG-lipid were solubilized in ethanol at a molar ratio of 50:10:38.5:1.5 or 47.5:10:40.8:1.7. Lipid nanoparticles (LNP) were prepared at a total lipid to mRNA weight ratio of approximately 10:1 to 30:1. Briefly, the mRNA was diluted to 0.2 mg/mL in 10 to 50 mM citrate buffer, pH 4. Syringe pumps were used to mix the ethanolic lipid solution with the mRNA aqueous solution at a ratio of about 1:5 to 1:3 (vol/vol) with total flow rates above 15 mL/min. The ethanol was then removed and the external buffer replaced with PBS by dialysis. Finally, the lipid nanoparticles were filtered through a 0.2 μm pore sterile filter.
Studies were performed in 6-8 week old female C57BL/6 mice (Charles River) 8-10 week old CD-1 (Harlan) mice (Charles River) according to guidelines established by an institutional animal were committee (ACC) and the Canadian Council on Animal Cwere (CCAC). Varying doses of mRNA-lipid nanoparticle were systemically administered by tail vein injection and animals euthanized at a specific time point (e.g., 4 hours) post-administration. Liver and spleen were collected in pre-weighed tubes, weights determined, immediately snap frozen in liquid nitrogen and stored at −80° C. until processing for analysis.
For liver, approximately 50 mg was dissected for analyses in a 2 mL FastPrep tubes (MP Biomedicals, Solon Ohio). ¼″ ceramic sphere (MP Biomedicals) was added to each tube and 500 μL of Glo Lysis Buffer—GLB (Promega, Madison Wis.) equilibrated to room temperature was added to liver tissue. Liver tissues were homogenized with the FastPrep24 instrument (MP Biomedicals) at 2×6.0 m/s for 15 seconds. Homogenate was incubated at room temperature for 5 minutes prior to a 1:4 dilution in GLB and assessed using SteadyGlo Luciferase assay system (Promega). Specifically, 50 μL of diluted twassue homogenate was reacted with 50 μL of SteadyGlo substrate, shaken for 10 seconds followed by 5 minute incubation and then quantitated using a CentroXS^3 LB 960 luminometer (Berthold Technologies, Germany). The amount of protein assayed was determined by using the BCA protein assay kit (Pierce, Rockford, Ill.). Relative luminescence units (RLU) were then normalized to total g protein assayed. To convert RLU to ng luciferase a standard curve was generated with QuantiLum Recombinant Luciferase (Promega).
The FLuc mRNA (L-6107 or L-7602) from Trilink Biotechnologies will express a luciferase protein, originally isolated from the firefly, Photinus pyralwas. FLuc was commonly used in mammalian cell culture to measure both gene expression and cell viability. It emits bioluminescence in the presence of the substrate, luciferin. This capped and polyadenylated mRNA was fully substituted with 5-methylcytidine and pseudouridine.
Compounds of structure (I) were formulated using the following molar ratio: 47.5% cationic lipid/10% dwastearoylphosphatidylcholine (DSPC)/40.8% Cholesterol/1.7% PEG lipid (“PEG-DMA” 2-[2-(ω-methoxy(polyethyleneglycol2000)ethoxy]-N,N-ditetradecylacetamide). Relative activity was determined by measuring luciferase expression in the liver 4 hours following administration via tail vein injection as described in Example 1. […]
The cationic lipids shown in Table 2 have previously been tested with nucleic acids. For comparative purposes, these lipids were also used to formulate lipid nanoparticles containing the FLuc mRNA (L-6107) using an in line mixing method, as described in Example 1 and in PCT/US10/22614, which is hereby incorporated by reference in its entirety. Lipid nanoparticles may be formulated using the following molar ratio: 50% Cationic lipid/10% distearoylphosphatidylcholine (DSPC)/38.5% Cholesterol/1.5% PEG lipid (“PEG-DMG”, i.e., 1-(monomethoxy-polyethyleneglycol)-2,3-dimyristoylglycerol, with an average PEG molecular weight of 2000). In alternate embodiments, cationic lipid, DSPC, cholesterol and PEG-lipid are formulated at a molar ratio of approximately 47.5:10:40.8:1.7. […]

Where [3] appears, read: TNS fluorescence, pH giving half-maximal fluorescence intensity, values in text.

`CCCCCCCCCN(CCCN(C)C(C)=O)C(CCCCCCCCC(=O)OCC(CCCC)CCCCCC)CCCCCCCCC(=O)OCC(CCCC)CCCCCC` (stereo not drawn) [Compound 1]: in data set [1] (setting [3]), the pKa (as a rule, the pH at which an ionisable group is half protonated) turned out to be 4.69.
For the molecule `CCCCCCCCCN(CCCCC(=O)N(C)C)C(CCCCCCCCC(=O)OCC(CC)CCCC)CCCCCCCCC(=O)OCC(CC)CCCC` (stereo not drawn) [Compound 2], the pKa in data set [1] (setting [3]) was determined as 4.74.
In the case of `CCCCC(CC)COC(=O)CCCCCCCCC(CCCCCCCCC(=O)OCC(CC)CCCC)NCCCCC(=O)OCc1ccccc1` (stereo not drawn) [Compound 3], in data set [2], the “Liver Luc (ng luc/g liver), *dosed at 1.0 mg/kg” value (“Liver Luc (ng luc/g liver)” for short) is on record as 1370 ± 674* ng luc/g liver and the “Relative activity in the luciferase assay relative to MC3” value turned out to be 3.68. In data set [1] (setting [3]), this molecule showed a pKa of 6.53. The molecule also gave a pKa in data set [1] (Table 3, TNS assay) of 6.38.
As for `CCCCCCC(CCCC)COC(=O)CCCCCCCCC(CCCCCCCCC(=O)OCC(CCCC)CCCCCC)N(CCCCN(C)C)C(=O)C(CC)CCCC` (stereo not drawn) [Compound 4], the “Liver Luc (ng luc/g liver)” value in data set [2] is recorded as 1213 ± 702* ng luc/g liver. Further, the pKa was 6.49 in data set [1] (setting [3]) and 6.37 in data set [1] (Table 3, TNS assay).
As to `CCCCCCCCC(=O)N(CCCCN(C)C)C(CCCCCCCCC(=O)OCC(CCCC)CCCCCC)CCCCCCCCC(=O)OCC(CCCC)CCCCCC` (stereo not drawn) [Compound 5], the “Liver Luc (ng luc/g liver)” value in data set [2] is reported as 1422 ± 372* ng luc/g liver. Also, the “Relative activity in the luciferase assay relative to MC3” value in data set [2] amounted to 6.4. The pKa is 6.69 in data set [1] (setting [3]) and 6.69 in data set [1] (Table 3, TNS assay).
For the molecule `CCCCCCCCCN(CCCCC(=O)NCCO)C(CCCCCCCCC(=O)OCC(CCCC)CCCCCC)CCCCCCCCC(=O)OCC(CCCC)CCCCCC` (stereo not drawn) [Compound 6], the “Liver Luc (ng luc/g liver)” value in data set [2] is on record as 318 ± 222* ng luc/g liver. Besides, the pKa in data set [1] (Table 3, TNS assay) was determined as 6.1.
In the case of `CCCCCCCCCN(CCCCC(=O)N(C)CCO)C(CCCCCCCCC(=O)OCC(CCCC)CCCCCC)CCCCCCCCC(=O)OCC(CCCC)CCCCCC` (stereo not drawn) [Compound 7], the “Liver Luc (ng luc/g liver)” value in data set [2] is given as 33 ± 18* ng luc/g liver. The molecule also had a pKa in data set [1] (Table 3, TNS assay) of 5.83.
`CCCCCCC(CCCC)COC(=O)CCCCCCCCC(CCCCCCCCC(=O)OCC(CCCC)CCCCCC)NCCCCC(=O)OCc1ccccc1` (stereo not drawn) [Compound 8]: the “Liver Luc (ng luc/g liver)” value in data set [2] is recorded as 550 ± 164* ng luc/g liver. Moreover, in data set [1] (Table 3, TNS assay), the pKa is 6.09.
Taken in the same sequence, the figures for `CCCCCCC(CCCC)COC(=O)CCCCCCCCC(CCCCCCCCC(=O)OCC(CCCC)CCCCCC)N(C)CCCO` (stereo not drawn) [Compound 9] were 7628 ± 3298* ng luc/g liver and 6.29.
Take `CCCCCCC(CCCC)COC(=O)CCCCCCCCC(CCCCCCCCC(=O)OCC(CCCC)CCCCCC)NCCCO` (stereo not drawn) [Compound 11]: the pKa in data set [1] (setting [3]) was found to be 8.04.
On the same count and under the same terms, the same measure for `CCCCCCCCCN(CCCO)C(CCCCCCCCC(=O)OCC(CCCC)CCCCCC)CCCCCCCCC(=O)OCC(CCCC)CCCCCC` (stereo not drawn) [Compound 12]: 4.84.
On to `CCCCCCC(CCCC)COC(=O)CCCCCCCCC(CCCCCCCCC(=O)OCC(CCCC)CCCCCC)N(CC)CCCO` (stereo not drawn) [Compound 13], for which, in data set [2], the “Liver Luc @ 0.5 mg/kg (ng luc/g liver)” value was 514 ± 297 ng luc/g liver. This molecule registered a pKa in data set [1] (Table 3, TNS assay) of 6.03.
On to `CCCCCCC(CCCC)COC(=O)CCCCCCCCC(CCCCCCCCC(=O)OCC(CCCC)CCCCCC)N(CC)CCCCO` (stereo not drawn) [Compound 14], for which, in data set [2], the “Liver Luc @ 0.5 mg/kg (ng luc/g liver)” value is 238 ± 70 ng luc/g liver. This molecule also yielded a pKa in data set [1] (Table 3, TNS assay) of 6.19.
On the same counts, the results for `CCCCCCCCC(CCCCCC)COC(=O)CCCCCC(CCCCCC(=O)OCC(CCCCCC)CCCCCCCC)N(CC)CCCCO` (stereo not drawn) [Compound 15] are 345 ± 141 ng luc/g liver and 6.12.
On to `CCCCCCC(CCCC)COC(=O)CCCCCCCCC(CCCCCCCCC(=O)OCC(CCCC)CCCCCC)N(C)CCCCO` (stereo not drawn) [Compound 16], for which, in data set [2], the “Liver Luc @ 0.5 mg/kg (ng luc/g liver)” value worked out at 2004 ± 582 ng luc/g liver. The molecule also came in with a pKa in data set [1] (Table 3, TNS assay) of 6.43.
Regarding `CCCCCCCCC(CCCCCC)COC(=O)CCCCCC(CCCCCC(=O)OCC(CCCCCC)CCCCCCCC)N(C)CCCO` (stereo not drawn) [Compound 17], the “Liver Luc @ 0.5 mg/kg (ng luc/g liver)” value in data set [2] is given as 405 ± 227 ng luc/g liver. In data set [1] (Table 3, TNS assay), this molecule displayed a pKa of 6.39.
In the case of `CCCCCCCCC(CCCCCC)COC(=O)CCCCCC(CCCCCC(=O)OCC(CCCCCC)CCCCCCCC)N(C)CCCCO` (stereo not drawn) [Compound 18], in data set [2], the “Liver Luc @ 0.5 mg/kg (ng luc/g liver)” value is recorded as 1506 ± 429 ng luc/g liver. In addition, in data set [1] (Table 3, TNS assay), the pKa turned out to be 6.45.
In the case of `CCCCCCC(CCCC)C(=O)OCCCCCCCCCC(CCCCCCCCCOC(=O)C(CCCC)CCCCCC)N(C)CCCO` (stereo not drawn) [Compound 19], the “Liver Luc @ 0.5 mg/kg (ng luc/g liver)” value in data set [2] is listed as 216 ± 85 ng luc/g liver. For the same molecule, the pKa in data set [1] (Table 3, TNS assay) was determined as 6.31.
As to `CCCCCCCCC(CCCCCC)COC(=O)CCCCCC(CCCCCC(=O)OCC(CCCCCC)CCCCCCCC)N(C)CCO` (stereo not drawn) [Compound 20], the “Liver Luc @ 0.5 mg/kg (ng luc/g liver)” value in data set [2] is 92 ± 48 ng luc/g liver. Moreover, in data set [1] (Table 3, TNS assay), the pKa was 6.25.

For the origin of these results see patent publication US12065396B2, “Lipids for use in lipid nanoparticle formulations” (ACUITAS THERAPEUTICS, INC., priority 2017, dated 2024).
